Here are results for five compounds from article PMC9412555, “Benzothiazole Derivatives Endowed with Antiproliferative Activity in Paraganglioma and Pancreatic Cancer Cells: Structure–Activity Relationship Studies and Target Prediction Analysis” (Pharmaceuticals, 2022).

The subject of series [1] is PTJ86i. Description: MTT cell viability assay, PTJ86i. Format: cell-based. The settings on record: for Selectivity Index (SI): IC50 in normal (HFF-1) fibroblast cells/IC50 in PTJ86i; for IC50: PTJ86i paraganglioma, MTT, 72 h. The protocol: (§1) Compounds 4a–p were submitted to a preliminary MTT assay at a one-point screening concentration of 75 μM for 72 h, including 2b as a reference compound (Figure 3). […] The presence of the electron-donating methoxy group decreased the activity of 2b, in both the para and meta positions. […] Specifically, these compounds, namely 4d, 4e, 4f, 4h, 4i, 4j, 4k, 4l, and 4m, were tested at concentrations of 3, 6, 12 and 24 µM for 72 h. In addition, the nine compounds, together with 2b, were tested against human fibroblasts HFF-1, in order to evaluate their selectivity against tumor cells, as compared to normal cells. Effects on cancer or normal cell viability were extrapolated from concentration–response curves and are expressed as IC50 values in Table 2.
(§2) Pancreatic cancer (AsPC-1, BxPC-3, and Capan-2), paraganglioma (PTJ86i and PTJ64i) and normal fibroblast (HFF-1) cell lines were cultured as previously described. All compounds were dissolved in DMSO (stock solutions) and then diluted in culture media to the final working concentrations. In this way, the solutions were completely clear and devoid of any undissolved material by microscopic inspection. […] The effects of compounds 4a-p and 2b on cancer cell viability were tested by an MTT assay (Sigma-Aldrich, St. Louis, MO, USA), as described by Florio et al.. In the initial screening all compounds were tested at a one-point screening concentration of 75 μM for 72 h (five replica wells per each condition). […] For combined treatments, the experimental design was made according to the Chou–Talalay method for drug combination studies, as previously described.
(§3) IC50 values were extrapolated from concentration–response curves and calculated using the CompuSyn software. […] Based on this analysis, a CI < 1 indicates synergism, a CI = 1 indicates additive effects and a CI > 1 indicates antagonism. SI values were calculated as previously described. Comparisons of mean values were performed using an unpaired Student’s t-test. For multiple comparisons, a one-way ANOVA followed by Dunnett’s test were employed. A p-value < 0.05 was estimated as statistically significant.
(In general: Formazan colour is commonly taken as a measure of viable cells.)

In series [2] the test system is PTJ64i. The series can be described thus: MTT cell viability assay, PTJ64i. Format: cell-based. The settings on record: for Selectivity Index (SI): IC50 in normal (HFF-1) fibroblast cells/IC50 in PTJ64i; for IC50: PTJ64i paraganglioma, MTT, 72 h. The procedure:
as §1, §2, §3

The subject of the next series is AsPC-1. The series can be described thus: MTT cell viability assay, AsPC-1. The series is classed as cell-based. The settings on record: for IC50: Homo sapiens, ASPC1, AsPC-1 pancreatic cancer, MTT, 72 h; for Selectivity Index (SI): IC50 in normal (HFF-1) fibroblast cells/IC50 in AsPC-1. The protocol: as §1, §2, §3
The test system of the next series is BxPC-3. The series can be described thus: MTT cell viability assay, BxPC-3. The series is classed as cell-based. The settings on record: for IC50: Homo sapiens, BxPC-3 pancreatic cancer, MTT, 72 h; for Selectivity Index (SI): IC50 in normal (HFF-1) fibroblast cells/IC50 in BxPC-3. The procedure:
as §1, §2, §3

The subject of a further series is Capan-2. The series can be described thus: MTT cell viability assay, Capan-2. The series is classed as cell-based. The settings on record: for IC50: Homo sapiens, Capan-2 pancreatic cancer, MTT, 72 h; for Selectivity Index (SI): IC50 in normal (HFF-1) fibroblast cells/IC50 in Capan-2. The protocol: as §1, §2, §3
The next series has as its system HFF-1. The series can be described thus: MTT cell viability assay, normal fibroblasts HFF-1. The series is classed as cell-based, human. The settings on record: Homo sapiens; HFF-1 normal cells, MTT, 72 h.
The subject of series [3] is pancreatic (AsPC-1, BxPC-3, and Capan-2) and paraganglioma (PTJ64i and PTJ86i) cancer cell lines. Description: One-point MTT screening at 75 µM in cancer cell lines. The series is classed as cell-based. The settings on record: one-point screening concentration of 75 μM for 72 h, five cancer cell lines. The procedure:
as §1, §2
Figure 3 Screening of the effects of novel derivatives (4a–p) on the viability of pancreatic (AsPC-1, BxPC-3, and Capan-2) and paraganglioma (PTJ64i and PTJ86i) cancer cell lines. The lead compound 2b was included as a reference and the histograms show the relative decrease of cancer cell viability observed after treatments, as compared to 2b. Cell viability was assessed by an MTT assay using compounds at 75 µM for 72 h. Data shown are the means ± SD of duplicate experiments with quintuplicate determinations and are calculated as ratios relative to the reference compound 2b (dashed line).

Series [4] concerns PTJ64i. Further details: method as in PMID 28594934. The settings on record: PTJ64i paraganglioma, previously published; cited from earlier work.
In series [5] the test system is PTJ86i. Further details: method as in PMID 28594934. The note with it: PTJ86i paraganglioma, previously published; cited from earlier work.

Read-outs that look alike come from different tables or passages of the source.

Procedure for HFF-1: All compounds were dissolved in DMSO (stock solutions) and then diluted in culture media to the final working concentrations. […] The effects of compounds 4a-p and 2b on cancer cell viability were tested by an MTT assay (Sigma-Aldrich, St. Louis, MO, USA), as described by Florio et al. [17]. In the initial screening all compounds were tested at a one-point screening concentration of 75 μM for 72 h (five replica wells per each condition).
IC50 values were extrapolated from concentration–response curves and calculated using the CompuSyn software [45]. […] SI values were calculated as previously described [46]. Comparisons of mean values were performed using an unpaired Student’s t-test. For multiple comparisons, a one-way ANOVA followed by Dunnett’s test were employed. A p-value < 0.05 was estimated as statistically significant.

For orientation: IC50 means the concentration needed to halve the response being measured. Broadly, the melting point is the temperature, or range, at which the solid turns liquid. As for `CC(=O)Nc1ccc(NC(=O)C(Sc2nc3cc(Cl)ccc3s2)c2ccccc2)cc1` (stereo not drawn) [4f, N-(4-Acetamidophenyl)-2-[(5-chlorobenzo[d]thiazol-2-yl)thio]-2-phenylacetamide], the melting point is 243 °C (dec.). Besides, in the series with PTJ86i [1], the “Selectivity Index (SI)” value was found to be 0.51 and the half-inhibitory concentration (IC50) was 12.8 µM. In addition, in the series with PTJ64i [2], the “Selectivity Index (SI)” value is given as 0.53 and the IC50 turned out to be 12.3 µM. For the same compound, in the series on AsPC-1, the IC50 came out at 10 µM and the “Selectivity Index (SI)” value was 0.65. Also, in the series with BxPC-3, the IC50 was found to be 18.9 µM and the “Selectivity Index (SI)” value is given as 0.35. Also, in the series on Capan-2, the IC50 is 20.1 µM and the “Selectivity Index (SI)” value was found to be 0.33. Besides, the IC50 with HFF-1 worked out at 6.54 µM. Also, the “effect on cancer cell viability, potency compared with 2b” value (“effect … compared with 2b” for short) in series [3] was “greater antiproliferative activity than 2b”.

With `O=C(Nc1cccc(F)c1)C(Sc1nc2cc(Cl)ccc2s1)c1ccccc1` (stereo not drawn) [4i, 2-[(5-Chlorobenzo[d]thiazol-2-yl)thio]-N-(3-fluorophenyl)-2-phenylacetamide], the melting point fell in the range of 151 to 153 °C. Moreover, in the series on PTJ86i [1], the “Selectivity Index (SI)” value was found to be 1.28 and the half-maximal inhibitory concentration (IC50) amounted to 11.7 µM. Further, in the series with PTJ64i [2], the “Selectivity Index (SI)” value amounted to 1.74 and the IC50 came out at 8.6 µM. Moreover, in the series on AsPC-1, the IC50 came out at 14.8 µM and the “Selectivity Index (SI)” value came out at 1.01. Moreover, in the series with BxPC-3, the IC50 was determined as 18.6 µM and the “Selectivity Index (SI)” value is listed as 0.81. For the same compound, in the series with Capan-2, the half-inhibitory concentration (IC50) was found to be 28.5 µM and the “Selectivity Index (SI)” value came out at 0.53. The compound further returned an IC50 in the series on HFF-1 of 15 µM. Further, in series [3], the “effect … compared with 2b” value is given as “greater antiproliferative activity than 2b”.

Regarding `O=C(Nc1ccccc1)C(Sc1nc2cc(Cl)ccc2s1)c1ccccc1` (stereo not drawn) [2b, reference compound], the “Selectivity Index (SI)” value with PTJ86i [1] stood at 1.28; with PTJ64i [2] it was 2.52; in the series on AsPC-1, 1.72; in the series on BxPC-3 it was 1.43; in the series with Capan-2 it was 1.09. Moreover, the IC50 in the series on PTJ64i [4] was 8.49 µM; in the series on AsPC-1, 12.4 µM; in the series with BxPC-3, 15 µM; in the series on Capan-2 it was 19.7 µM; with PTJ86i [5], 16.7 µM; in the series with HFF-1 it was 21.4 µM.

`O=C(Nc1ccc([N+](=O)[O-])cc1)C(Sc1nc2cc(Cl)ccc2s1)c1ccccc1` (stereo not drawn) [4e, 2-[(5-Chlorobenzo[d]thiazol-2-yl)thio]-N-(4-nitrophenyl)-2-phenylacetamide] had a melting point of 191 to 193 °C. In the series on PTJ86i [1], the “Selectivity Index (SI)” value is 0.88 and the IC50 is 18.9 µM. Also, in the series with PTJ64i [2], the “Selectivity Index (SI)” value was determined as 1.70 and the IC50 was determined as 9.81 µM. Further, in the series with AsPC-1, the IC50 was 12.8 µM and the “Selectivity Index (SI)” value was 1.31. Besides, in the series on BxPC-3, the IC50 amounted to 10.7 µM and the “Selectivity Index (SI)” value was found to be 1.56. Further, in the series with Capan-2, the IC50 is 14.1 µM and the “Selectivity Index (SI)” value stood at 1.18. The IC50 in the series on HFF-1 worked out at 16.7 µM. The “effect … compared with 2b” value in [3] is given as “greater antiproliferative activity than 2b”.

As for `O=C(Nc1cccc([N+](=O)[O-])c1)C(Sc1nc2cc(Cl)ccc2s1)c1ccccc1` (stereo not drawn) [4k, 2-[(5-Chlorobenzo[d]thiazol-2-yl)thio]-N-(3-nitrophenyl)-2-phenylacetamide], the melting point was in the range of 193 to 195 °C. Further, in the series on PTJ86i [1], the “Selectivity Index (SI)” value was determined as 1.73 and the concentration for half-maximal inhibition (IC50) was found to be 13.5 µM. In the series with PTJ64i [2], the “Selectivity Index (SI)” value turned out to be 3.12 and the IC50 turned out to be 7.47 µM. Moreover, in the series with AsPC-1, the IC50 is 10.1 µM and the “Selectivity Index (SI)” value came out at 2.31. Besides, in the series with BxPC-3, the IC50 was 11.9 µM and the “Selectivity Index (SI)” value was 1.96. Also, in the series on Capan-2, the IC50 worked out at 16.9 µM and the “Selectivity Index (SI)” value was 1.38. For the same compound, the IC50 in the series with HFF-1 is 23.3 µM. Besides, the “effect … compared with 2b” value in series [3] was “greater antiproliferative activity than 2b”.
